The source of these data is patent publication US20240041840A1 (Areteia Therapeutics, Inc., priority 2020, published 2024).

The test system of experiment [1] is subjects with eosinophilic asthma. Conditions: for Post-Bronchodilator FEV1 Reversibility % change, mean / Post-Bronchodilator FEV1 Reversibility % change, median / Post-Bronchodilator FEV1 Reversibility change, mean / Post-Bronchodilator FEV1 Reversibility change, median / Post-Bronchodilator FEV1 Reversibility observed, mean / Post-Bronchodilator FEV1 Reversibility observed, median: Week 12. As to the method: Pulmonary function is measured by performing a spirometry, which measures forced expiratory volume in is (FEV1), the volume of air moved in the first second of exhalation, this is a well-accepted measure of asthma. Forced vital capacity (FVC) is the total volume of air exhaled during the entire forced expiratory volume (FEV) test. The FEV1/FVC ratio is a calculated measure that may provide a more specific measure of bronchoconstriction, independent of processes such as air trapping. Pulmonary function testing can be tested pre-bronchodilator (after waiting a sufficient time so that all bronchodilator medications have cleared) or post-bronchodilator, typically 15-30 minutes after inhaling a short-acting bronchodilator, such as albuterol. Bronchodilator reversibility (BDR) is calculated and assessed by analyzing FEV1 pre- and post-bronchodilator, and calculating the change both as absolute (ml) and percentage change.
Table 10 provides the data for analyzing bronchodilator reversibility, the % improvement in FEV1 pre/post albuterol bronchodilator (same day). The study entry criteria required ≥12% and ≥200 mL at screening. These values are accepted in the diagnosis of asthma.

The subject of experiment [2] is subjects with eosinophilic chronic rhinosinusitis with nasal polyps. The settings on record: 150 mg twice daily. An excerpt: Current asthma medications work in a variety of ways. […] The co-primary endpoints were change in AEC and change in total polyp score (TPS) from baseline to Month 6, with additional clinical and histologic endpoints assessed.
[3] abbreviates: 12 subjects with a history of asthma.

Each structure is given as a SMILES string. Read-outs that look alike come from different tables or passages of the source.

With `CCCN[C@@H]1CCc2nc(N)sc2C1` [dexpramipexole, (6R)-2-amino-4,5,6,7-tetrahydro-6-(propylamino) benzothiazole], in experiment [1] (75 mg/day), the “Post-Bronchodilator FEV1 Reversibility % change, mean” value is on record as −58.7%; the “Post-Bronchodilator FEV1 Reversibility % change, median” value was −49.9%; the “Post-Bronchodilator FEV1 Reversibility change, mean” value was -112 mL; the “Post-Bronchodilator FEV1 Reversibility change, median” value was -55.0 mL. Further, in experiment [1] (75 mg/day), the “Post-Bronchodilator FEV1 Reversibility observed, mean” value amounted to 264 mL and the “Post-Bronchodilator FEV1 Reversibility observed, median” value is reported as 235 mL. Also, in experiment [1] (150 mg/day), the “Post-Bronchodilator FEV1 Reversibility % change, mean” value is −39.8%; the “Post-Bronchodilator FEV1 Reversibility % change, median” value is −9.68%; the “Post-Bronchodilator FEV1 Reversibility change, mean” value was -72.3 mL; the “Post-Bronchodilator FEV1 Reversibility change, median” value was 0 mL. In experiment [1] (150 mg/day), the “Post-Bronchodilator FEV1 Reversibility observed, mean” value was found to be 279 mL and the “Post-Bronchodilator FEV1 Reversibility observed, median” value is on record as 235 mL. Moreover, in experiment [1] (300 mg/day), the “Post-Bronchodilator FEV1 Reversibility % change, mean” value is given as −19.6%; the “Post-Bronchodilator FEV1 Reversibility % change, median” value is −19.0%; the “Post-Bronchodilator FEV1 Reversibility change, mean” value is -109 mL; the “Post-Bronchodilator FEV1 Reversibility change, median” value is -50.0 mL. For the same compound, in experiment [1] (300 mg/day), the “Post-Bronchodilator FEV1 Reversibility observed, mean” value is 336 mL and the “Post-Bronchodilator FEV1 Reversibility observed, median” value is 290 mL. Also, the Bronchodilator reversibility result in experiment [1] (Week 12, 3 DEX arms vs. placebo) is recorded as “preserved”. The “Total polyp score (TPS), mean” value in experiment [2] (3 months (Baseline 5.29)) was 5.50. Moreover, the “Other indices of chronic rhinosinusitis disease activity (SNOT-22, sinus CT score, Sniffin Sticks olfaction test)” value in experiment [2] (6 month trial) is listed as “not improved”. Also, in experiment [2] (6 months (Baseline 5.29)), the “Total polyp score (TPS), mean” value was found to be 5.42. For the same compound, in experiment [2] (setting [3]), the ACQ6 values entry is listed as “unchanged” and the FEV1 values entry is reported as “unchanged”.
